ChEMBL document CHEMBL5465560, “Selectivity Literature for EUbOPEN Chemogenomic Library” (2024)

Legend:
[1] = target: Platelet-derived growth factor receptor alpha (Homo sapiens, UniProt P16234); assay: Selectivity interaction (KinomeScan (DiscoverX)) EUB0000595a PDGFRA; settings: at 10 µM
[2] = target: Maternal embryonic leucine zipper kinase (Homo sapiens) (UniProt Q14680); assay: Selectivity interaction (KinomeScan (DiscoverX)) EUB0000092b MELK; settings: at 10 µM
[3] = target: T1, Serine/threonine-protein kinase Sgk1 (Homo sapiens) (UniProt O00141); assay: Selectivity interaction (Ambit KINOMEscan and KiNATiv profiling in Jurkat cells) EUB0000090b SGK1; assay type: cell-based; settings: at 1 µM
T1 sequence (whole entry): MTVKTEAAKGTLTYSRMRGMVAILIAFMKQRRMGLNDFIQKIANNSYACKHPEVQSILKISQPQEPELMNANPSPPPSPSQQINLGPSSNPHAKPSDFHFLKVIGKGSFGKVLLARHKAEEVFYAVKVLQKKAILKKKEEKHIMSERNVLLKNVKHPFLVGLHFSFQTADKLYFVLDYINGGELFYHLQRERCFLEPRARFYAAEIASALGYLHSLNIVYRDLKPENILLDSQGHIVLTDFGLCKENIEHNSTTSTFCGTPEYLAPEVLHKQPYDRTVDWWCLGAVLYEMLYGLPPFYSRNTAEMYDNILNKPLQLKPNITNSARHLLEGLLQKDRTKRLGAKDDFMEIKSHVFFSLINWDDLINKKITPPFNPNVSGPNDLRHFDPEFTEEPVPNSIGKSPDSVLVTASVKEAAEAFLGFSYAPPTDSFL

[4] = target: Platelet-derived growth factor receptor beta (Homo sapiens, UniProt P09619); assay: Selectivity interaction (KinomeScan (DiscoverX)) EUB0000618a PDGFRB; settings: at 10 µM
Sequence of Platelet-derived growth factor receptor beta (P09619 whole entry): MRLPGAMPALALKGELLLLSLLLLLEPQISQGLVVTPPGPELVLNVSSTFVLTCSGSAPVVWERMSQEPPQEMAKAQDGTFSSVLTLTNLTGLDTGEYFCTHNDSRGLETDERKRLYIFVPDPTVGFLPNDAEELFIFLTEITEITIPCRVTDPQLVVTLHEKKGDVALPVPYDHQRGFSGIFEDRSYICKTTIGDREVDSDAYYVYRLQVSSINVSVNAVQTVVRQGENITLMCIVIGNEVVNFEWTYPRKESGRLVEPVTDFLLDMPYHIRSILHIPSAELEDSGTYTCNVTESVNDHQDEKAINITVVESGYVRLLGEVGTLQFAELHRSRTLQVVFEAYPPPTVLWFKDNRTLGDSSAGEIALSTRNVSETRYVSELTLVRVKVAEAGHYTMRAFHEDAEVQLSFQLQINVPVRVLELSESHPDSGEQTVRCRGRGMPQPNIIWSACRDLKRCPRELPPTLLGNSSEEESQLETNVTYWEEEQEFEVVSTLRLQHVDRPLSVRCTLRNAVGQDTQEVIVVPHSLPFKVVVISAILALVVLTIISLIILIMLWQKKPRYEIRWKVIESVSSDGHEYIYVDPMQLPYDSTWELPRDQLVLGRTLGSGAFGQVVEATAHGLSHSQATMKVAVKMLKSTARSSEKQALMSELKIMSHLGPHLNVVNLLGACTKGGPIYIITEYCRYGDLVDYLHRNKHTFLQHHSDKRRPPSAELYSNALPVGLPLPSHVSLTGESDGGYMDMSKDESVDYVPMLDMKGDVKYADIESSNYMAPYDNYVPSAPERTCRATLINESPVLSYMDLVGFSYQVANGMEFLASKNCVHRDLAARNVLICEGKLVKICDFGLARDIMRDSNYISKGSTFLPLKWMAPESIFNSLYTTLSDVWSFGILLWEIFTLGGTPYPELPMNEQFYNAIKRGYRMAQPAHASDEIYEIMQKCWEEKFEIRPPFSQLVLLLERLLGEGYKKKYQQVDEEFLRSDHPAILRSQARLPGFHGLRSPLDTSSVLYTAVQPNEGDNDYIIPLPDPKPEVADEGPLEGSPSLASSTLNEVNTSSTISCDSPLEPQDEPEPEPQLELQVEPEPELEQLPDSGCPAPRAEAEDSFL

[5] = target: T2, Phosphatidylinositol 5-phosphate 4-kinase type-2 beta (Homo sapiens) (UniProt P78356); assay: Selectivity interaction (ActivX KiNativ screen (ex vivo kinase selectivity in human PBMCs)) EUB0001619a PIP4K2B; assay type: cell-based; settings: PBMC, at 1 µM
T2 sequence (whole entry): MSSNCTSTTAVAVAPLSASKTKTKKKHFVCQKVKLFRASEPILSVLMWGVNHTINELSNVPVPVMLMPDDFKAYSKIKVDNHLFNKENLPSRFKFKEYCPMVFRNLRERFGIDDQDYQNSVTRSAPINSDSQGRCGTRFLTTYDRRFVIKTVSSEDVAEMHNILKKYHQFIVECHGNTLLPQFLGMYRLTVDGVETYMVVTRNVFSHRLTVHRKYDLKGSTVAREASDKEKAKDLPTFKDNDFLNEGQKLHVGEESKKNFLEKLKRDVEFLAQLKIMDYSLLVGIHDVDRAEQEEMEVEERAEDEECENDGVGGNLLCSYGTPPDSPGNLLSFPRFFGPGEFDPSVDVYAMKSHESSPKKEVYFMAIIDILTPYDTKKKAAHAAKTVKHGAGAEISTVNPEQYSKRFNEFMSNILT

[6] = target: T3, Activin receptor type-1B (Homo sapiens) (UniProt P36896); assay: Selectivity interaction (KinomeScan (DiscoverX)) EUB0000655a ACVR1B; settings: at 10 µM
T3 sequence (whole entry): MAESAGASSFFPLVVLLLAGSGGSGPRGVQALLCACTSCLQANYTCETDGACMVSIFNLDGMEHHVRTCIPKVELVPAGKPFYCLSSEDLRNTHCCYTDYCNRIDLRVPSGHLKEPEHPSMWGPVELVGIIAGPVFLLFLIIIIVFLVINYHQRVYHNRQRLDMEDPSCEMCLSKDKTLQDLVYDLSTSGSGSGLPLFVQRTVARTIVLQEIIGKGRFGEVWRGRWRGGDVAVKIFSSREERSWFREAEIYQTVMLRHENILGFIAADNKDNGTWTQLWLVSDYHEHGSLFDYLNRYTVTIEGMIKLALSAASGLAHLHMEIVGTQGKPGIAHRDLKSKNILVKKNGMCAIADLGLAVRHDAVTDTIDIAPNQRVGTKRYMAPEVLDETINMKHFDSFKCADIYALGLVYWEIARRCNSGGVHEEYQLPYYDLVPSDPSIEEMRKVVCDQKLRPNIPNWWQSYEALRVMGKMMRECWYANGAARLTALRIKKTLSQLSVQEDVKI

[7] = target: T4, Prostaglandin G/H synthase 2 (Homo sapiens) (UniProt P35354); assay: Selectivity interaction (Panel of kinases, GPCRs, ion channels and transporters (enzymatic assay)) EUB0000223bCl PTGS2
T4 sequence (whole entry): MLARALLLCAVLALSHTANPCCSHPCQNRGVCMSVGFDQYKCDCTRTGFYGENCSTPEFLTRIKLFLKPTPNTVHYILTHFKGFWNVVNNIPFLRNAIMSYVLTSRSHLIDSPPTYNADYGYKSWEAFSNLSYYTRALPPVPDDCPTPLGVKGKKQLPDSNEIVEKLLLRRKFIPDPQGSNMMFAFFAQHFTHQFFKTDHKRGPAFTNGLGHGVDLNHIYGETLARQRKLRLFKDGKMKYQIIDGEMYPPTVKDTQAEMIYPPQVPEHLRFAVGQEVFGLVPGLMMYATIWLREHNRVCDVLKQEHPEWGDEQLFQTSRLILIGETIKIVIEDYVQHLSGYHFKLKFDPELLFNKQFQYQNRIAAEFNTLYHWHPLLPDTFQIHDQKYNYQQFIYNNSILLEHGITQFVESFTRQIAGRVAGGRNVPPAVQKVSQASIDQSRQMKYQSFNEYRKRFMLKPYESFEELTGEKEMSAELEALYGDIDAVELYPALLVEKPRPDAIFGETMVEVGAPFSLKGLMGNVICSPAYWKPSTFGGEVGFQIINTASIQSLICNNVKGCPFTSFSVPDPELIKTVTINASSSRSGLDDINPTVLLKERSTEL

[8] = target: Protein kinase C alpha type (Homo sapiens, UniProt P17252); assay: Selectivity interaction (ProQinase) EUB0000171b PRKCA

Sequence of Platelet-derived growth factor receptor alpha (P16234 whole entry): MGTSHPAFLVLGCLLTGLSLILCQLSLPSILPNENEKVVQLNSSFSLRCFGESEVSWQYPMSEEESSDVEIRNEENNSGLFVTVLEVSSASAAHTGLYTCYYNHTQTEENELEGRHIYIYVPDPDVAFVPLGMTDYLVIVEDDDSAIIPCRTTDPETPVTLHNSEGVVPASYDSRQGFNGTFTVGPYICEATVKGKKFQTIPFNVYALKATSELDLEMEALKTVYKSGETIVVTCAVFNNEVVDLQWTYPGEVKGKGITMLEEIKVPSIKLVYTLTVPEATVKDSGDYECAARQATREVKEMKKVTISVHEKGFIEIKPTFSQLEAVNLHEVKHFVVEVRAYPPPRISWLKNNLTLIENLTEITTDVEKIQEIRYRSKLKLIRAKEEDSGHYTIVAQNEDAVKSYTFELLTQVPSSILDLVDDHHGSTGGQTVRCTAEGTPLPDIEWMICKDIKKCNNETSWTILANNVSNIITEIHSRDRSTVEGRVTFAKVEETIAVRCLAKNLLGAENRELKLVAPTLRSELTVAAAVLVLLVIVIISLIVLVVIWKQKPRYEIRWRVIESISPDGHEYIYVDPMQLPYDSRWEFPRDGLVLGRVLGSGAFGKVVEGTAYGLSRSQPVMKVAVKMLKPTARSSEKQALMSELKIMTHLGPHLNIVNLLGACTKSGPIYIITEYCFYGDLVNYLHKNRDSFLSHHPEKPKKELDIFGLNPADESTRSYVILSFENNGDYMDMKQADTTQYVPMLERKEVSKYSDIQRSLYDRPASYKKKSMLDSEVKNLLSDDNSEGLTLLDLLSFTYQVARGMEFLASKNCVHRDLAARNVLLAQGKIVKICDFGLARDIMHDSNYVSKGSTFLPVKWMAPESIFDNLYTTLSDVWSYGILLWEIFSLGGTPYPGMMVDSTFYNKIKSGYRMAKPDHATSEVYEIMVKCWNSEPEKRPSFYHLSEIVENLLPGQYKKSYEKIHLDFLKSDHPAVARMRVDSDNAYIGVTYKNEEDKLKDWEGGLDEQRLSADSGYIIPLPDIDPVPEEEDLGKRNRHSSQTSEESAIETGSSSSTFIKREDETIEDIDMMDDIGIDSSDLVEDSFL
Sequence of Maternal embryonic leucine zipper kinase (Homo sapiens) (Q14680 whole entry, looked up): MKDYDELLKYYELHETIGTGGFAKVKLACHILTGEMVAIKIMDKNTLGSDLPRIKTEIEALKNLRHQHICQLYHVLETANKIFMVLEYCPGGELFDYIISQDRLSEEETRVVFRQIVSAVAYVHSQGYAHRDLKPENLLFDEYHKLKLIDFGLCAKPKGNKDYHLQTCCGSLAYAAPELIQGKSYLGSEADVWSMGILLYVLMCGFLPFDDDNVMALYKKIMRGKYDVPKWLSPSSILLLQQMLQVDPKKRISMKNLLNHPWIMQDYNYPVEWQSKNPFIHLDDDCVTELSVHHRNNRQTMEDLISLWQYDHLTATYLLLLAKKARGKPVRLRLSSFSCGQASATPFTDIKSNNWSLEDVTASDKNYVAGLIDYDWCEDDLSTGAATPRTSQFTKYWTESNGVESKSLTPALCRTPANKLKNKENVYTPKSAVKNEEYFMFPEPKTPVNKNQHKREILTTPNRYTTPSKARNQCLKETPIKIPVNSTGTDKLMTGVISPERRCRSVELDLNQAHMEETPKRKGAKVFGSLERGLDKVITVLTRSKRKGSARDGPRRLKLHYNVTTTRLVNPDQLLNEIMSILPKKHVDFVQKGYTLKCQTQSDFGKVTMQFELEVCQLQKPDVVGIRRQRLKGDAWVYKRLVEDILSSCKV

## COCC(=O)NC/C=C/c1ccc2ncnc(Nc3ccc(Oc4ccc(C)nc4)c(C)c3)c2c1 [CP-724714]
[1]
  % of control: 56%

## CCC(=O)N1CCN(c2ccc(-n3c(=O)ccc4cnc5ccc(-c6cnc7ccccc7c6)cc5c43)cc2C(F)(F)F)CC1
[2]
  % of control: 50%

## CN(C)C/C=C/C(=O)Nc1ccc(C(=O)N2CCCC(Nc3ncc(Cl)c(-c4c[nH]c5ccccc45)n3)C2)cc1 (centres undefined)
[3]
  % of control: 99%

## O[C@H]1CC[C@H](Nc2ncc3nc(Nc4c(F)cc(F)cc4F)n([C@H]4CCOC4)c3n2)CC1
[4]
  % of control: 64%

## N#Cc1cccc(-c2c[nH]c3ncnc(N4CCOCC4)c23)c1
[5]
  % of inhibition: 15%

## CN(C)CCOc1ccc(-c2nc(-c3ccncc3)c(-c3ccc4c(c3)CC/C4=N\O)[nH]2)cc1
[6]
  % of control: 40%

## COc1cc(C(=O)N2CC[C@@H](O)[C@@H](N)C2)cc2nc(-c3cc4ccccc4n3CC3CC3)n(C)c12
[7]
  pXC50: < 4 M

## C=CC(=O)Nc1cccc(C(=O)Nc2ccc(Nc3cc(-c4[nH]c(SC)nc4C)ccn3)cc2)c1
[8]; at 1 µM
  % of control: 102%
[8]; at 5 µM
  % of control: 80%
